According to ChEMBL document CHEMBL4673329, “Polyketides from the marine-derived fungus Aspergillus falconensis: In silico and in vitro cytotoxicity studies” (Bioorg Med Chem, 2021):
Activity calls are given as the source filed them. The calls are words filed in the database; no cut-off is given here.

How the values were obtained:
Assay type in all cases: functional, cell-based
MDA-MB-231 [1] = experiment: Cytotoxicity against human MDA-MB-231 cells assessed as reduction in cell viability upto 100 uM incubated for 24 hrs by MTT assay; conditions: dose microM <=100, time 24.0 hrs
L5178Y = experiment: Cytotoxicity against mouse L5178Y cells assessed as reduction in cell viability incubated for 24 hrs by MTT assay
MDA-MB-231 [2] = experiment: Inhibition of cell migration in human MDA-MB-231 at 70 uM incubated for 24 hrs by scratch wound healing assay

| Structure (SMILES) | Activity (MDA-MB-231 [1]) | IC50 (L5178Y) [µM] | inhibition (MDA-MB-231 [2]) |
| --- | --- | --- | --- |
| COC(=O)c1cc(O)cc(OC)c1C(=O)c1c(O)cc(C)c(Cl)c1O | inactive | – | – |
| COC(=O)c1cc(O)cc(OC)c1C(=O)c1c(O)cc(C)cc1O [SULOCHRIN] | inactive | 5.1 | Active |
